# Laboratory results from US9078890B2, “Use of koumine and its homologues in preparation of medicament for treatment of autoimmune diseases of involved bones and joints” (priority 2011, dated 2015).
# Assays:
# [1] = tested on: type II collagen-induced arthritis rat; assay: Type II collagen-induced arthritis rat: joint pathological change, HE staining and pathological score; format: in vivo, Wistar rat; details: koumine 0.6, 3, 15 mg/kg intragastric; 10 days after intervention
# Protocol: (§1) Under aseptic conditions, 10 mg chicken type II collagen protein was fully mixed with 5 ml 10 mM glacial acetic acid solution, and stirred overnight in refrigerator at 4° C. to fully dissolve it. It was mixed with complete Freund's adjuvant in equal volume in ice bath to fully emulsify into an emulsion with a collagen concentration of 1 mg/ml.
# (§2) Wistar rats are divided into a modeling group and a false modeling group. After the modeling group rats were narcotized with intraperitoneal injection of pentobarbital, the above emulsion was injected intracutaneously at 3 to 4 positions at back, tail root or the like, 0.3 ml for each, an primary immunity was carried out. After 7 days, a secondary immunity was carried out, the emulsifying agent complete Freund's adjuvant of initial immunity was replaced with incomplete Freund's adjuvant, 0.1 ml the emulsion was injected under sevoflurane inhalation anesthesia wherein the injection position is different from the last time. In false modeling group, the emulsion was replaced with solvent glacial acetic acid solution. […]
# The rats of each group were killed 10 days after intervention, the ankle joints of left hind limbs were picked off to conduct HE staining, and the pathological change was observed and scored. […]
# in vivo = details: mouse, sc
# [2] = tested on: type II collagen-induced arthritis rat; assay: Type II collagen-induced arthritis rat: paw swelling degree and arthritis index; format: in vivo, Wistar rat; details: koumine 0.6, 3, 15 mg/kg intragastric; Day 5, Day 10 of intervention; dose dependent
# Protocol: as §1
# (§3) Wistar rats are divided into a modeling group and a false modeling group. After the modeling group rats were narcotized with intraperitoneal injection of pentobarbital, the above emulsion was injected intracutaneously at 3 to 4 positions at back, tail root or the like, 0.3 ml for each, an primary immunity was carried out. After 7 days, a secondary immunity was carried out, the emulsifying agent complete Freund's adjuvant of initial immunity was replaced with incomplete Freund's adjuvant, 0.1 ml the emulsion was injected under sevoflurane inhalation anesthesia wherein the injection position is different from the last time. In false modeling group, the emulsion was replaced with solvent glacial acetic acid solution.
# (§4) Successfully modeled rat in the modeling group were randomly divide into 5 groups: low, middle, high-dose koumine treatment group, positive control group, negative control group, 10 rats for each group. […]
# [3] = tested on: type II collagen-induced arthritis rat; assay: Type II collagen-induced arthritis rat: joint pathological change, X-ray; format: in vivo, Wistar rat; details: high dose and middle dose of koumine (15 and 3 mg/kg); 9 days after intervention
# Protocol: as §1, §3, §4
# [4] = tested on: serum type II collagen antibody; assay: Type II collagen-induced arthritis rat: serum type II collagen antibody (ELISA); format: in vivo, Wistar rat; details: koumine 0.6, 3, 15 mg/kg intragastric once daily 10 days; after intervention finished; dose dependent
# Protocol: as §1, §3, §4
# [5] = tested on: type II collagen-induced arthritis rat; assay: Type II collagen-induced arthritis rat: mechanical hyperalgesia (Von-frey mechanical pain threshold); format: in vivo, Wistar rat; details: koumine 0.6, 3, 15 mg/kg intragastric; dose-effect relationship
# Protocol: as §1
# as §2, with “time.” for “time. In false modeling group, the emulsion was replaced with solvent glacial acetic acid solution.”
# 1 hour after intragastric administration, the thermal withdrawal latency of each group was determined by the photo-thermal dolorimeter; the mechanical pain threshold of rats of each group was determined by Von-frey electromechanical pain threshold detector, thus the condition of thermal hyperalgesia and mechanical hyperalgesia of rats of each group was observed.
# adjuvant arthritis mice [6] = assay: Adjuvant arthritis mice: phlogogenic paw swelling (paw thickness); format: in vivo, Kunming mice; details: koumine 0.8, 4, 20 mg/kg intragastric once daily; Day 4-18 after inflammation
# Protocol: (§5) BCG was inactivated in water bath at 80° C., and fully emulsified along with complete Freund's adjuvant to form complete Freund's adjuvant emulsion containing 5 mg/ml BCG, preserved at 4° C., and shake well before use. The Kunming mice were divided into a modeling group and a false modeling group. According to the method recited in the literature [Rasool M, Sabina E P, Lavanya B. Anti-inflammatory effect of Spirulina fusiformis on adjuvant-induced arthritis in mice. Biol Pharm Bull. 2006, 29(12):2483-7], for the modeling group, the model was prepared by intradermal injection of 20 ul the emulsion under the plantar surface of right paws after the mice was narcotized; for the false modeling group, the emulsion was replaced with physiological saline. For the modeling group, the animals were screened on Day 8 after injection: the mice with the injected paw thickness increased >0.5 mm and thermal hyperalgesia occurred (paw thermal withdrawal latency <8 second) were selected as experimental subjects. […]
# According to Methodology of Pharmacological Experiment (Shuyun Xu, Rulian Bian: Methodology of Pharmacological Experiment [M], 3rd Ed., People's Medical Publishing House: 912-913), paw thickness was selected as a paw swelling index and was measured using vernier caliper, measuring timing is the same as above, each measurement repeats 3 times and the average was taken (similarly hereinafter).
# adjuvant arthritis mice [7] = assay: Adjuvant arthritis mice: joint pathology damage (HE staining); format: in vivo, Kunming mice; details: koumine 0.8, 4, 20 mg/kg intragastric; Day 19; dose dependent
# Protocol: as §5, with “subjects. The selected mice were divided into 5 groups randomly: low, middle, high dose treatment group (0.8, 4, 20 mg/kg); indomethacin positive control group (10 mg/kg); negative control group (physiological saline), each comprising 12 animals.” for “subjects.”
structure (smiles),measurement,setting,value
C=CC12CN(C)C3CC14C(=Nc1ccccc14)C1CC2C3CO1 (stereo not drawn) [Koumine],"Scores of pathologic change degree of ankle joints, HE staining (FIGS. 9 and 10)",[1],significantly decrease the scores of pathologic change degree of ankle joints
same,LD50,in vivo,99 mg/kg
same,Effect on arthritis index (FIG. 7),[2],reduces arthritis index
same,"Effect on paw swelling, paw volume (FIG. 6)",[2],relieves the paw swelling
same,"Joint pathological change, X-ray images (FIG. 8)",[3],relieve the bone destruction of ankle joint
same,Effect on serum type II collagen antibody level (FIG. 5),[4],significantly antagonistic effect on type II collagen antibody level increase
same,Effect on mechanical pain threshold (summary of Table 4),[5],improve mechanical pain threshold
same,Effect on phlogogenic paw thickness (FIG. 2),adjuvant arthritis mice [6],reduces the phlogogenic paw thickness of adjuvant arthritis mice in dose and time-dependent manner
same,"Effect on joint pathology damage, HE staining (FIG. 3)",adjuvant arthritis mice [7],"can improve the inflammatory cell infiltration, synovial hyperplasia, bone destruction"
